Measurements published in US10335392B2, “Cyclic compounds useful as modulators of TNF α” (BRISTOL-MYERS SQUIBB COMPANY, priority 2015, dated 2019).

Each compound was assayed against TNFα (Homo sapiens (Human), UniProt P01375) (assay: TNF induced HEK-Blue assay). Details: TNFα 0.5 ng/ml; HEK-Blue-CD40L cells, NF-kB-driven secreted alkaline phosphatase reporter; 18 h.
Type: cell-based
Protocol: TNF or CD40L-Induced HEK-Blue Assay
Test compounds serially diluted in DMSO were plated in an assay plate (LABCYTE, Cat. # LP-0200) at final concentrations ranging from 0.004 μM to 25 μM. TNFα (final concentration 0.5 ng/ml) or CD40L (final concentration 30 ng/ml) in assay buffer [DMEM, 4.5 g/l glucose (Gibco, Cat. 21063-029), 10% FBS (Sigma, F4135), 1% Penicillin-Streptomycin (Gibco, Cat. 15140-122), 1% Anti-Anti (Gibco, Cat. 15240-112) and 2 mM L-glutamine (Gibco, Cat. 25030-081)] was then added to the assay plate. After a 30 minute pre-incubation at 37° C. and 5% CO2, HEK-Blue™-CD40L cells (INVIVOGEN, Cat. Code hkb-cd40) containing a NF-kB-driven secreted alkaline phosphatase reporter gene were seeded into the assay plate at a density of 20,000 cells per well. This plate was then incubated for 18 h at 37° C. and 5% CO2. Secreted alkaline phosphatase expression was measured using QUANTI-Blue™ (INVIVOGEN, Cat. Code rep-qb1) according to manufacturer's specifications and the assay plate was read on a PerkinElmer Envision at 620 nm.
Inhibition data for the test compound over a range of concentrations was plotted as percentage inhibition of the test compound (100%=maximum inhibition). IC50 values were determined after correcting for background [(sample read−mean of low control)/(mean of high control−mean of low control)] where by the low control is DMSO without stimulation and high control is DMSO with stimulation. The IC50 is defined as the concentration of test compound which produces 50% inhibition and was quantified using the 4 parameter logistic equation to fit the data.

Sequence of TNFα (P01375 77-233): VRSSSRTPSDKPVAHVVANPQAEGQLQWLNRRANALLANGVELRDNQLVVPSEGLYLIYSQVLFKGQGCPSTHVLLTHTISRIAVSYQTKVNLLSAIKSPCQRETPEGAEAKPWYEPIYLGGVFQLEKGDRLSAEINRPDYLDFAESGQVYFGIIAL

IC50 [µM]	SMILES
< 1	O=C(O)CN1CCN(c2ncc(-c3cc4c(cc3F)nc3n4[C@@H](c4ccccc4OC(F)F)[C@@H]4C[C@H]34)cn2)CC1 [Example 33, 2-(4-(5-((1aS,8R,8aR)-8-(2-(difluoromethoxy)phenyl)-4-fluoro-1,1a,8,8a-tetrahydrobenzo[d]cyclopropa[3,4]pyrrolo[1,2-a]imidazol-5-yl)pyrimidin-2-yl)piperazin-1-yl)acetic acid]
1 to 10	CC(C)(O)c1ncc(-c2cc3c(cc2F)nc2n3[C@@H](c3ccccc3OCc3ccncc3)[C@@H]3C[C@H]23)cn1 [Example 34, 2-(5-((1aS,8R,8aR)-4-fluoro-8-(2-(pyridin-4-ylmethoxy)phenyl)-1,1a,8,8a-tetrahydrobenzo[d]cyclopropa[3,4]pyrrolo[1,2-a]imidazol-5-yl)pyrimidin-2-yl)propan-2-ol]
10 to 25	CC(C)(O)c1ncc(-c2cc3c(cc2F)nc2n3[C@H](c3ccccc3OCc3ccncc3)[C@@H]3C[C@H]23)cn1 [Example 35, 2-(5-((1aS,8S,8aR)-4-fluoro-8-(2-(pyridin-4-ylmethoxy)phenyl)-1,1a,8,8a-tetrahydrobenzo[d]cyclopropa[3,4]pyrrolo[1,2-a]imidazol-5-yl)pyrimidin-2-yl)propan-2-ol]
